From the kinase profiling compilation of Christmann-Franck et al. (2016)

Assays:
Assay in all cases: split-luciferase competition binding
AKT2 (human) = AKT2 (human) (UniProt P31751); settings: compound 10.0 µM
RPS6KA2 KD1 (human) = RPS6KA2 KD1 (human) (UniProt Q15349); settings: compound 10.0 µM
PRKCE (human) = PRKCE (human) (UniProt Q02156); settings: compound 10.0 µM
AKT3 (human) = AKT3 (human) (UniProt Q9Y243); settings: compound 10.0 µM
RPS6KA4 KD1 (human) = RPS6KA4 KD1 (human) (UniProt O75676); settings: compound 10.0 µM
RPS6KA1 KD1 (human) = RPS6KA1 KD1 (human) (UniProt Q15418); settings: compound 10.0 µM
Chain of RPS6KA1 KD1 (human) (Q15418 whole entry, looked up): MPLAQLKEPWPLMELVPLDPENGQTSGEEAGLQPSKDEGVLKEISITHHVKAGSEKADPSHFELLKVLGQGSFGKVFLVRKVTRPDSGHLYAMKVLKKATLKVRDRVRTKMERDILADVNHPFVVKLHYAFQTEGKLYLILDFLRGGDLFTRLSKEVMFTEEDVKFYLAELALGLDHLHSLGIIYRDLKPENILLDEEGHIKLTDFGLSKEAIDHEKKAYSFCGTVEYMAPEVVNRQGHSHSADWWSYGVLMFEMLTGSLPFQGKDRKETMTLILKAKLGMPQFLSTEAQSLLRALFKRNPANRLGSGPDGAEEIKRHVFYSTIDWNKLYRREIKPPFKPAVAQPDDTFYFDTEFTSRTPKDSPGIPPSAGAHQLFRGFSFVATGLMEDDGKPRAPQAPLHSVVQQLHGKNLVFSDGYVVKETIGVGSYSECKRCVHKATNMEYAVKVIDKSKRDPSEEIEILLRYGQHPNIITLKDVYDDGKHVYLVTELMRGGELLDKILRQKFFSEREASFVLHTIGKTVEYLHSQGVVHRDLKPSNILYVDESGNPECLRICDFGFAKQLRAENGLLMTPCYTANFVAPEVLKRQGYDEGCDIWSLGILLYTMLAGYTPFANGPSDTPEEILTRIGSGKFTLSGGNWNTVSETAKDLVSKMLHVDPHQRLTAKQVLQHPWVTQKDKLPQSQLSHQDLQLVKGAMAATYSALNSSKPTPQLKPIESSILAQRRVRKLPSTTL

AURKA (human) = AURKA (human) (UniProt O14965); settings: compound 10.0 µM
PRKACA (mouse) = settings: compound 10.0 µM; accession and sequence are those of the human protein
PKN1 (human) = PKN1 (human) (UniProt Q16512); settings: compound 10.0 µM
Chain of PKN1 (human) (Q16512 whole entry, looked up): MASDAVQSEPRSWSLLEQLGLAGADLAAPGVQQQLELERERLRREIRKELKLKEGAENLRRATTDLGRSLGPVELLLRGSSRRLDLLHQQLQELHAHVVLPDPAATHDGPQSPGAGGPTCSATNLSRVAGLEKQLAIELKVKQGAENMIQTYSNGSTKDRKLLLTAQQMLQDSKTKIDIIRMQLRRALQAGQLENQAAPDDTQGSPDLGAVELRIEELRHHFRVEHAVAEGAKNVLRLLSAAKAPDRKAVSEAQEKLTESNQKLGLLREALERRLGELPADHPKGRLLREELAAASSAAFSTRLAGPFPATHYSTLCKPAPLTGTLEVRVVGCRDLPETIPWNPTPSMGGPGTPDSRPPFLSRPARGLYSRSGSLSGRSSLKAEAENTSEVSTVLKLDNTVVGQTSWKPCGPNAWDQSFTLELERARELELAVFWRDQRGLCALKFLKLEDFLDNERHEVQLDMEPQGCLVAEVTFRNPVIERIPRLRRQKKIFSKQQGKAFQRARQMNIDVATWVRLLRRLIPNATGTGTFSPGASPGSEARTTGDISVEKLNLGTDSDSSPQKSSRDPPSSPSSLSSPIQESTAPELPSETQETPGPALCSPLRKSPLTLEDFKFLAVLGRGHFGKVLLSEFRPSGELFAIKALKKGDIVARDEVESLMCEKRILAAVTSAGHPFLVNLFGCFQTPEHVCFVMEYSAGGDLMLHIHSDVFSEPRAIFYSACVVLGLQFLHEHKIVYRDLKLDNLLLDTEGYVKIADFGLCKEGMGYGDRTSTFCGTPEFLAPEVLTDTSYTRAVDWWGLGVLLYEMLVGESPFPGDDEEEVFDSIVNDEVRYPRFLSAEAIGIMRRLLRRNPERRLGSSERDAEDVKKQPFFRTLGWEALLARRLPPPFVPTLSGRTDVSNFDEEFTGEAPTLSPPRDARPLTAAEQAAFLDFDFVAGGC

PRKCD (human) = PRKCD (human) (UniProt Q05655); settings: compound 10.0 µM
PRKX (human) = PRKX (human) (UniProt P51817); settings: compound 10.0 µM
PRKCQ (human) = PRKCQ (human) (UniProt Q04759); settings: compound 10.0 µM
Chain of PRKCQ (human) (Q04759 whole entry, looked up): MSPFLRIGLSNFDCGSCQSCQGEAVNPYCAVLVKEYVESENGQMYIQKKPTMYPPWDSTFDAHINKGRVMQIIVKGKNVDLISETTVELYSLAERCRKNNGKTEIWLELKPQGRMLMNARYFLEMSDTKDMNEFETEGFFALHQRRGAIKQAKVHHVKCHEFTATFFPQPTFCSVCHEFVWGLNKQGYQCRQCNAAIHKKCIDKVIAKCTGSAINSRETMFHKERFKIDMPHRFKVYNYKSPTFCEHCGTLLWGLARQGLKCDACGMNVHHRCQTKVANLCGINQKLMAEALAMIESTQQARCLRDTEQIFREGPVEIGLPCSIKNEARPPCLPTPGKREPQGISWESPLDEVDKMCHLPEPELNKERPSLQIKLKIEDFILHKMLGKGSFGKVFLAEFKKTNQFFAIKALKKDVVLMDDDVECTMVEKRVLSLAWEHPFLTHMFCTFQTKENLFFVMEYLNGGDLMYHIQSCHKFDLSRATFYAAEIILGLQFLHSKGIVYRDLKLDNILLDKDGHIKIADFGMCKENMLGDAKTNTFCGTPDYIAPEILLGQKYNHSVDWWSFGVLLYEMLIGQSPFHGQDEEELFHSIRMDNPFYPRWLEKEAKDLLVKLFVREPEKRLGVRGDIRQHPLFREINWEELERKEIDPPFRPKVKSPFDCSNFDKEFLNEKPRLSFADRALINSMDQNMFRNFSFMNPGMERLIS

PRKCG (human) = PRKCG (human) (UniProt P05129); settings: compound 10.0 µM
PRKCH (human) = PRKCH (human) (UniProt P24723); settings: compound 10.0 µM
PDPK1 (human) = PDPK1 (human) (UniProt O15530); settings: compound 10.0 µM
STK32B (human) = STK32B (human) (UniProt Q9NY57); settings: compound 10.0 µM
Chain of STK32B (human) (Q9NY57 whole entry, looked up): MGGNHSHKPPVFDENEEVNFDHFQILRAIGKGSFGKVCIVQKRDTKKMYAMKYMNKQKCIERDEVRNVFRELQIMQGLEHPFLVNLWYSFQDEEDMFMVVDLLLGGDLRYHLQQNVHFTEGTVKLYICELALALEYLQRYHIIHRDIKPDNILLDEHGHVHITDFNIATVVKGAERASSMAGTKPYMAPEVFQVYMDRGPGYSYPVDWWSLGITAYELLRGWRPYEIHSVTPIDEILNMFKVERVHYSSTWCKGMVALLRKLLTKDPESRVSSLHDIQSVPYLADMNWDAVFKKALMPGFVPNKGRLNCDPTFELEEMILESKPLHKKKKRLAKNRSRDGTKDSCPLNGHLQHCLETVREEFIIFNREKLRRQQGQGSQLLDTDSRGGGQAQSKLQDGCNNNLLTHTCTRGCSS

AURKB (human) = AURKB (human) (UniProt Q96GD4); settings: compound 10.0 µM
AURKC (human) = AURKC (human) (UniProt Q9UQB9); settings: compound 10.0 µM
RPS6KA3 KD1 (human) = RPS6KA3 KD1 (human) (UniProt P51812); settings: compound 10.0 µM
Chain of RPS6KA3 KD1 (human) (P51812 whole entry, looked up): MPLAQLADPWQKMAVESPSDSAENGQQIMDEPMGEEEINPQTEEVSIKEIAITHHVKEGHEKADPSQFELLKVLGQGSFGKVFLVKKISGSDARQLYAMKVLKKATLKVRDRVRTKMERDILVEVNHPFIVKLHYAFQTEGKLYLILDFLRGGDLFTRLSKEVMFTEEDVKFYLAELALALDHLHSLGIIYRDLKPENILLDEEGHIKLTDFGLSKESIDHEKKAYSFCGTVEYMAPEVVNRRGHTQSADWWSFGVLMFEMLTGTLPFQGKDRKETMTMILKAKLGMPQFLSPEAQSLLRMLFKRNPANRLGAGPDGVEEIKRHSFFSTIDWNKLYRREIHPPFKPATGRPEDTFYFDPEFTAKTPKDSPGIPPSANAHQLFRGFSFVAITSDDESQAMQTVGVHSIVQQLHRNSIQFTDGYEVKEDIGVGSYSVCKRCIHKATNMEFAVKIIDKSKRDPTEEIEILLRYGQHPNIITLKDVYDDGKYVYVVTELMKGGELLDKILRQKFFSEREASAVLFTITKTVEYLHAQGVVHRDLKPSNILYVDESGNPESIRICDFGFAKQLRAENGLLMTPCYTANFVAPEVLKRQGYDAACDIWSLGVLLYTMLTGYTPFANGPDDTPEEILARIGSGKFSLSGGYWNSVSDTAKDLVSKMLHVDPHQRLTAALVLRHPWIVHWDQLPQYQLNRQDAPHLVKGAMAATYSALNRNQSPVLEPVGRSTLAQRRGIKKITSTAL

AKT1 (human) = AKT1 (human) (UniProt P31749); settings: compound 10.0 µM
SGK2 (human) = SGK2 (human) (UniProt Q9HBY8); settings: compound 10.0 µM
PRKCI (human) = PRKCI (human) (UniProt P41743); settings: compound 10.0 µM
DMPK (human) = DMPK (human) (UniProt Q09013); settings: compound 10.0 µM
Chain of DMPK (human) (Q09013 whole entry, looked up): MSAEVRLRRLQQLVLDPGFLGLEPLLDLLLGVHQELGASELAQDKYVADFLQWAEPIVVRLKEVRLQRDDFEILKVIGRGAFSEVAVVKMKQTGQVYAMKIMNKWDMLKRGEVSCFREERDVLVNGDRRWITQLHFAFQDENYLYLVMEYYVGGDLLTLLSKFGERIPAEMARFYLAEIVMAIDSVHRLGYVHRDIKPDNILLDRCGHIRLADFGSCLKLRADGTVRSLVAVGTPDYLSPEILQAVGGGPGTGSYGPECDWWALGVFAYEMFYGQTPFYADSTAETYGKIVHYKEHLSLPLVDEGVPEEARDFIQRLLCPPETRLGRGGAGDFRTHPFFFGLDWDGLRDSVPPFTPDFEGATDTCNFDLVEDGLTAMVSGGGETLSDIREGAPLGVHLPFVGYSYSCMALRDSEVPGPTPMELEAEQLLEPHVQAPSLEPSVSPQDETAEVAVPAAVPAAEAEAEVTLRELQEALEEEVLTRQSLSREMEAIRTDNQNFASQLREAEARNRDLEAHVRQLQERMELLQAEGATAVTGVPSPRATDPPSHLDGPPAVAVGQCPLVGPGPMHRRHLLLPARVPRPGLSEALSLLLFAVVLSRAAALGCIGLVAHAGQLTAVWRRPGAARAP

RPS6KA6 KD1 (human) = RPS6KA6 KD1 (human) (UniProt Q9UK32); settings: compound 10.0 µM
SGK3 (human) = SGK3 (human) (UniProt Q96BR1); settings: compound 10.0 µM
PRKACB (human) = PRKACB (human) (UniProt P22694); settings: compound 10.0 µM
RPS6KA5 KD1 (human) = RPS6KA5 KD1 (human) (UniProt O75582); settings: compound 10.0 µM

Chain of RPS6KA2 KD1 (human) (Q15349 whole entry, looked up): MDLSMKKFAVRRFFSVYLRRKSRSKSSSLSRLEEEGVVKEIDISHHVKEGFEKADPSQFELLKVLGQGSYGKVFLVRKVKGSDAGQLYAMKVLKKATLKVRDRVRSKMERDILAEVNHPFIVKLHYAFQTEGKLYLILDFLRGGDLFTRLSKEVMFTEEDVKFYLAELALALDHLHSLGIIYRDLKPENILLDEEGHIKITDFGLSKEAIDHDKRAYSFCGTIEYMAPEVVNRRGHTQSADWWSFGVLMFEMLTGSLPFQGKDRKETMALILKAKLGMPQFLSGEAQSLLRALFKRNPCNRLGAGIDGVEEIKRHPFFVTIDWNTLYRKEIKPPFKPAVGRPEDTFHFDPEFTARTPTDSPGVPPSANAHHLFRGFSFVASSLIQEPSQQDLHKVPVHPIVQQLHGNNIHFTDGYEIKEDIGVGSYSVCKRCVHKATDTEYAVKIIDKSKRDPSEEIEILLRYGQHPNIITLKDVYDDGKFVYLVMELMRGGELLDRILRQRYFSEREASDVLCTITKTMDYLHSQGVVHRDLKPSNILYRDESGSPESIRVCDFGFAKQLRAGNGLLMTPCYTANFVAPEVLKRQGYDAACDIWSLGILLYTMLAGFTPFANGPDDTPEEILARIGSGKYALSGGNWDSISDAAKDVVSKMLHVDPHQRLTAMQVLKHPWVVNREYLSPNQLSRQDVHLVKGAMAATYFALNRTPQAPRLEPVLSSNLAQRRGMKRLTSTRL

Row | inhibition (AKT2 (human)) [%] | inhibition (RPS6KA2 KD1 (human)) [%] | inhibition (PRKCE (human)) [%] | inhibition (AKT3 (human)) [%] | inhibition (RPS6KA4 KD1 (human)) [%] | inhibition (RPS6KA1 KD1 (human)) [%] | inhibition (AURKA (human)) [%] | inhibition (PRKACA (mouse)) [%] | inhibition (PKN1 (human)) [%] | inhibition (PRKCD (human)) [%] | inhibition (PRKX (human)) [%] | inhibition (PRKCQ (human)) [%] | inhibition (PRKCG (human)) [%] | inhibition (PRKCH (human)) [%] | inhibition (PDPK1 (human)) [%] | inhibition (STK32B (human)) [%] | inhibition (AURKB (human)) [%] | inhibition (AURKC (human)) [%] | inhibition (RPS6KA3 KD1 (human)) [%] | inhibition (AKT1 (human)) [%] | SMILES | further results
1 | 0 | 32 | 0 | 0 | 23 | 0 | 41 | 16 | 10 | 0 | 12 | 20 | 3 | 0 | 0 | 0 | 71 | 80 | 12 | 6 | COc1cc2nccc(Oc3ccc(NC(=O)Nc4ccc(F)cc4F)c(F)c3)c2cc1OC | inhibition (SGK2 (human)): 17%; inhibition (PRKCI (human)): 0%; inhibition (DMPK (human)): 13%; inhibition (RPS6KA6 KD1 (human)): 21%; inhibition (SGK3 (human)): 12%; inhibition (PRKACB (human)): 5%; inhibition (RPS6KA5 KD1 (human)): 43%
2 | 0 | 14 | 10 | 0 | 4 | 23 | 0 | 9 | 4 | 2 | 11 | 0 | 5 | 10 | 0 | 0 | 26 | 0 | 12 | 19 | O=C1Nc2ccc(I)cc2/C1=C/c1cc(Br)c(O)c(Br)c1 | inhibition (SGK2 (human)): 10%; inhibition (PRKCI (human)): 0%; inhibition (DMPK (human)): 11%; inhibition (RPS6KA6 KD1 (human)): 19%; inhibition (SGK3 (human)): 0%; inhibition (PRKACB (human)): 11%; inhibition (RPS6KA5 KD1 (human)): 13%
3 | 0 | 0 | 0 | 0 | 0 | 0 | 0 | 3 | 0 | 2 | 0 | 0 | 0 | 0 | 0 | 0 | 0 | 10 | 0 | 0 | N#C/C(=C\c1ccc(O)c(O)c1)C(=O)NCc1ccccc1 | inhibition (SGK2 (human)): 0%; inhibition (PRKCI (human)): 0%; inhibition (DMPK (human)): 0%; inhibition (RPS6KA6 KD1 (human)): 0%; inhibition (SGK3 (human)): 0%; inhibition (PRKACB (human)): 0%; inhibition (RPS6KA5 KD1 (human)): 0%
4 | 0 | 48 | 2 | 0 | 12 | 65 | 0 | 7 | 0 | 0 | 0 | 0 | 0 | 0 | 0 | 4 | 0 | 0 | 41 | 0 | CC(C)[C@H](CO)Nc1nc(Nc2cccc(Cl)c2)c2ncn(C(C)C)c2n1 | inhibition (SGK2 (human)): 0%; inhibition (PRKCI (human)): 0%; inhibition (DMPK (human)): 11%; inhibition (RPS6KA6 KD1 (human)): 19%; inhibition (SGK3 (human)): 0%; inhibition (PRKACB (human)): 0%; inhibition (RPS6KA5 KD1 (human)): 2%

Row | SMILES | inhibition (AKT2 (human)) [%] | inhibition (RPS6KA2 KD1 (human)) [%] | inhibition (PRKCE (human)) [%] | inhibition (AKT3 (human)) [%] | inhibition (RPS6KA4 KD1 (human)) [%] | inhibition (RPS6KA1 KD1 (human)) [%] | inhibition (AURKA (human)) [%] | inhibition (PRKACA (mouse)) [%] | inhibition (PKN1 (human)) [%] | inhibition (PRKCD (human)) [%] | inhibition (PRKX (human)) [%] | inhibition (PRKCQ (human)) [%] | inhibition (PRKCG (human)) [%] | inhibition (PRKCH (human)) [%] | inhibition (PDPK1 (human)) [%] | inhibition (STK32B (human)) [%] | inhibition (AURKB (human)) [%] | inhibition (AURKC (human)) [%] | inhibition (RPS6KA3 KD1 (human)) [%] | inhibition (AKT1 (human)) [%] | further results
5 | O=C1NC(=O)c2c1c1c3ccccc3n3c1c1c2c2ccccc2n1C1CCC3O1 | 56 | 81 | 59 | 45 | 77 | 81 | 12 | 65 | 10 | 58 | 79 | 82 | 45 | 78 | 29 | 12 | 60 | 45 | 77 | 78 | inhibition (SGK2 (human)): 87%; inhibition (PRKCI (human)): 28%; inhibition (DMPK (human)): 37%; inhibition (RPS6KA6 KD1 (human)): 80%; inhibition (SGK3 (human)): 85%; inhibition (PRKACB (human)): 71%; inhibition (RPS6KA5 KD1 (human)): 73%
